Patent US20240158446A1, “CYCLIC COMPOUND HAVING SELECTIVE INHIBITORY ACTION ON KRAS OVER HRAS AND NRAS” (CHUGAI SEIYAKU KABUSHIKI KAISHA, priority 2021, published 2024)
pIC50, pKd: −log10 of the molar value. Where two headings read alike, the source gives them in different places.

What was measured:
[1] = biological target: GDP-bound KRAS wild-type protein (Homo sapiens, UniProt P01116); experiment: Binding to KRAS by surface plasmon resonance (SPR), Single Cycle Kinetics; settings: GDP-bound KRAS wild-type protein, read-out: KRAS KD
[2] = biological target: GDP-bound NRAS wild-type protein (Homo sapiens, UniProt P01111); experiment: Binding to NRAS by surface plasmon resonance (SPR), Single Cycle Kinetics; settings: for NRAS/KRAS (ratio of KD value for NRAS to KD value for KRAS): SPR, GDP-bound NRAS wild-type protein vs GDP-bound KRAS wild-type protein
[3] = biological target: GDP-bound HRAS wild-type protein (Homo sapiens, UniProt P01112); experiment: Binding to HRAS by surface plasmon resonance (SPR), Single Cycle Kinetics; settings: for HRAS/KRAS (ratio of KD value for HRAS to KD value for KRAS): SPR, GDP-bound HRAS wild-type protein vs GDP-bound KRAS wild-type protein
[4] = test system: human lung cancer strain NCI-H441;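 note: cell proliferation inhibition after four days measured by CellTiter-Glo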
[5] = SPR, Single Cycle Kinetics, 1:1 binding model

Sequence of GDP-bound NRAS wild-type protein (P01111 whole entry): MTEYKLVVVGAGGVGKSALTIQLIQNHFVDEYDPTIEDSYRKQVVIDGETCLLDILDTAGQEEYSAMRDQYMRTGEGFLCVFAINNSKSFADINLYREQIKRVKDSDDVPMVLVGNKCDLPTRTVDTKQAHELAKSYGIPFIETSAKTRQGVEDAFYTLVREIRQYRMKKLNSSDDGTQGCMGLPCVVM
Sequence of GDP-bound KRAS wild-type protein (P01116 whole entry): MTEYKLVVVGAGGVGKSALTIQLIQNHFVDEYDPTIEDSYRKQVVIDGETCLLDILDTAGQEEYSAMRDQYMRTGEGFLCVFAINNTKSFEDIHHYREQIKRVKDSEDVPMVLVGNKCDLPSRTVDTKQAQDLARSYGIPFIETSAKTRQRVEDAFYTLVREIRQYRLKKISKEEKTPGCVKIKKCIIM
Sequence of GDP-bound HRAS wild-type protein (P01112 whole entry): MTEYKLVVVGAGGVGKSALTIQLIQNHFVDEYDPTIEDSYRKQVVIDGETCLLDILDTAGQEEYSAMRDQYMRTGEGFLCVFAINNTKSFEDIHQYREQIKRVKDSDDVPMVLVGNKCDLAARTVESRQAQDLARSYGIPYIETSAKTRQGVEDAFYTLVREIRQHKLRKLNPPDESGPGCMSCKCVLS

| Structure (SMILES) | pKd [1, 5] | NRAS/KRAS (ratio of KD value for NRAS to KD value for KRAS) ([2]; KD ratio class) | HRAS/KRAS (ratio of KD value for HRAS to KD value for KRAS) ([3]; KD ratio class) | pIC50 [4] | pKd ([1]; SPR, Single Cycle Kinetics) | NRAS/KRAS (ratio of KD value for NRAS to KD value for KRAS) [2] | HRAS/KRAS (ratio of KD value for HRAS to KD value for KRAS) [3] | pKd ([1]; SPR Single Cycle Kinetics, 1:1 binding model) | NRAS/KRAS (ratio of KD value with respect to GDP-bound NRAS wild-type protein to KD value with respect to KRAS) ([2]; SPR KD ratio NRAS/KRAS, class symbols) | HRAS/KRAS (ratio of KD value with respect to GDP-bound HRAS wild-type protein to KD value with respect to KRAS) ([3]; SPR KD ratio HRAS/KRAS, class symbols) |
| --- | --- | --- | --- | --- | --- | --- | --- | --- | --- | --- |
| CCO[C@@H]1C[C@H]2C(=O)NC3(CCC3)C(=O)N(C)[C@@H](C3CCCC3)C(=O)N(C)[C@H](C(=O)N(C)C)CC(=O)N(C)[C@@H](CC(C)C)C(=O)N[C@@H]([C@@H](C)CC)C(=O)N(C)CC(=O)N(C)[C@H]3C/C=C\CCN(C3=O)[C@@H](Cc3ccc(F)cc3)C(=O)N(C)CC(=O)N[C@@H](CCc3ccc(Cl)c(Cl)c3)C(=O)N2C1 [PP1482] | 9.35 | A (a compound having 10 or more and less than 20 is denoted as A) | B (a compound having 3 or more and less than 10 is denoted as B) | 7.12 | – | – | – | – | – | – |
| CCO[C@@H]1C[C@H]2C(=O)NC3(CCC3)C(=O)N(C)[C@@H](C(CC)CC)C(=O)N(C)[C@H](C(=O)N(C)C)CC(=O)N(C)[C@@H](C)C(=O)N[C@@H]([C@@H](C)CC)C(=O)N(C)CC(=O)N(C)[C@H]3C/C=C\CCN(C3=O)[C@@H](Cc3ccc(C(F)(F)F)cc3)C(=O)N(C)CC(=O)N[C@@H](CCc3ccc4sccc4c3)C(=O)N2C1 [PP1222] | 8.92 | A (a compound having 10 or more and less than 20 is denoted as A) | A (a compound having 10 or more and less than 20 is denoted as A) | 6.52 | – | – | – | – | – | – |
| CCOC[C@H]1C(=O)N[C@@H]([C@@H](C)CC)C(=O)N(C)CC(=O)N(C)[C@H]2C/C=C\CCN(C2=O)[C@@H](Cc2ccc(C)cc2)C(=O)N(C)CC(=O)N[C@@H](CCc2ccc(C(F)(F)F)c(Cl)c2)C(=O)N2C[C@H](OCC)C[C@H]2C(=O)NC2(CC(C)(C)C2)C(=O)N(C)[C@@H](C2CCCC2)C(=O)N(C)[C@H](C(=O)N(C)C)CC(=O)N1C [PP2395] | – | – | – | 8.20 | 10.14 | A (a compound having 10 or more and less than 20 is denoted as A) | B (a compound having 3 or more and less than 10 is denoted as B) | – | – | – |
| CCCOC[C@H]1C(=O)N[C@@H]([C@@H](C)CC)C(=O)N(C)CC(=O)N(C)[C@H]2C/C=C\CCN(C2=O)[C@@H](Cc2ccc(C)cc2)C(=O)N(C)CC(=O)N[C@@H](CCc2ccc(C(F)(F)F)c(Cl)c2)C(=O)N2C[C@@H](C)C[C@H]2C(=O)NC2(CC(C)(C)C2)C(=O)N(C)[C@@H](C2CCCC2)C(=O)N(C)[C@H](C(=O)N(C)CC)CC(=O)N1C [PP2467] | – | – | – | 7.66 | 9.59 | A (a compound having 10 or more and less than 20 is denoted as A) | B (a compound having 3 or more and less than 10 is denoted as B) | – | – | – |
| CCO[C@@H]1C[C@H]2C(=O)NC3(CC(C)(C)C3)C(=O)N(C)[C@@H](C3CCCC3)C(=O)N(C)[C@H](C(=O)N(C)CC)CC(=O)N(C)[C@@H](COC)C(=O)N[C@@H]([C@@H](C)CC)C(=O)N(C)CC(=O)N(C)[C@H]3C/C=C\CCN(C3=O)[C@@H](Cc3ccc(C)cc3)C(=O)N(C)CC(=O)N[C@@H](CCc3ccc(C(F)(F)F)c(OC)c3)C(=O)N2C1 [PP2392] | – | – | – | 7.60 | 9.96 | A (a compound having 10 or more and less than 20 is denoted as A) | A (a compound having 10 or more and less than 20 is denoted as A) | – | – | – |
| CCCOC[C@H]1C(=O)N[C@@H]([C@@H](C)CC)C(=O)N(C)CC(=O)N(C)[C@H]2C/C=C\CCN(C2=O)[C@@H](Cc2ccc(C(F)(F)F)cc2)C(=O)N(C)CC(=O)N[C@@H](CCc2cc(F)c(C(F)(F)F)c(F)c2)C(=O)N2C[C@H](OCC)C[C@H]2C(=O)NC2(CCCC2)C(=O)N(C)[C@@H](C2CCCC2)C(=O)N(C)[C@H](C(=O)N2CCCC2)CC(=O)N1C [PP1399] | 9.72 | A (a compound having 10 or more and less than 20 is denoted as A) | A (a compound having 10 or more and less than 20 is denoted as A) | 7.73 | – | – | – | – | – | – |
| CCC[C@H]1C(=O)N[C@@H]([C@@H](C)CC)C(=O)N(C2CC2)CC(=O)N(C)[C@H]2C/C=C\CCN(C2=O)[C@@H](Cc2ccc(C(F)(F)F)cc2)C(=O)N(C)CC(=O)N[C@@H](CCc2ccc(C(F)(F)F)c(OC)c2)C(=O)N2C[C@@H](C)C[C@H]2C(=O)N(C)C2(CCC2)C(=O)N(C)[C@@H](C2CCCC2)C(=O)N(C)[C@H](C(=O)N(C)C)CC(=O)N1C [PP2360] | – | – | – | 8.54 | 9.80 | A (a compound having 10 or more and less than 20 is denoted as A) | B (a compound having 3 or more and less than 10 is denoted as B) | – | – | – |
| CCO[C@@H]1C[C@H]2C(=O)NC3(CCC3)C(=O)N(C)[C@@H](C3CCCC3)C(=O)N(C)[C@H](C(=O)N3CCOCC3)CC(=O)N(C)[C@@H](CC3CCCC3)C(=O)N[C@@H]([C@@H](C)CC)C(=O)N(C)CC(=O)N(C)[C@H]3C/C=C\CCN(C3=O)[C@@H](Cc3ccc(C(F)(F)F)cc3)C(=O)N(C)CC(=O)N[C@@H](CCc3cc(F)c(C(F)(F)F)c(F)c3)C(=O)N2C1 [PP1393] | 9.72 | A (a compound having 10 or more and less than 20 is denoted as A) | A (a compound having 10 or more and less than 20 is denoted as A) | 7.74 | – | – | – | – | – | – |
| CCOC[C@H]1C(=O)N[C@@H]([C@@H](C)CC)C(=O)N2CCC[C@H]2C(=O)N(C)[C@H]2C/C=C\CCN(C2=O)[C@@H](Cc2ccc(C)cc2)C(=O)N(C)CC(=O)N[C@@H](CCc2ccc(C(F)(F)F)c(OC)c2)C(=O)N2C[C@@H](C)C[C@H]2C(=O)NC2(CC(C)(C)C2)C(=O)N(C)[C@@H](C2CCCC2)C(=O)N(C)[C@H](C(=O)N(C)CC)CC(=O)N1C [PP2427] | – | – | – | 7.44 | 9.15 | AA (a compound having 20 or more is denoted as AA) | A (a compound having 10 or more and less than 20 is denoted as A) | – | – | – |
| CCO[C@@H]1C[C@H]2C(=O)NC3(CC(C)(C)C3)C(=O)N(C)[C@@H](C(CC)CC)C(=O)N(C)[C@H](C(=O)N(C)C)CC(=O)N(C)[C@@H](COC)C(=O)N[C@@H]([C@@H](C)CC)C(=O)N(C3CC3)CC(=O)N(C)[C@H]3C/C=C\CCN(C3=O)[C@@H](CC3CCC(F)(F)CC3)C(=O)N(C)CC(=O)N[C@@H](CCc3cc(F)c(C(F)(F)F)c(F)c3)C(=O)N2C1 [PP2568] | – | – | – | 7.63 | – | – | – | 8.92 | A (a compound having 10 or more and less than 20 is denoted as A) | B (a compound having 3 or more and less than 10 is denoted as B) |
| CCO[C@@H]1C[C@H]2C(=O)NC3(CCC3)C(=O)N(C)[C@@H](C(CC)CC)C(=O)N(C)[C@H](C(=O)N(C)C)CC(=O)N(C)[C@@H](CC3CCCC3)C(=O)N[C@@H]([C@@H](C)CC)C(=O)N(C)CC(=O)N(C)[C@H]3C/C=C\CCN(C3=O)[C@@H](Cc3ccc(C(F)(F)F)cc3)C(=O)N(C)CC(=O)N[C@@H](CCc3ccc(C(F)(F)F)c(OC)c3)C(=O)N2C1 [PP1212] | 9.55 | AA (a compound having 20 or more is denoted as AA) | A (a compound having 10 or more and less than 20 is denoted as A) | 7.45 | – | – | – | – | – | – |
| CCCOC[C@H]1C(=O)N[C@@H]([C@@H](C)CC)C(=O)N(C)CC(=O)N(C)[C@H]2C/C=C\CCN(C2=O)[C@@H](Cc2ccc(C)cc2)C(=O)N(C)CC(=O)N[C@@H](CCc2ccc(C(F)(F)F)c(OC)c2)C(=O)N2C[C@@H](C)C[C@H]2C(=O)NC2(CC(C)(C)C2)C(=O)N(C)[C@@H](C2CCCC2)C(=O)N(C)[C@H](C(=O)N(C)CC)CC(=O)N1C [PP2461] | – | – | – | 7.97 | 9.82 | A (a compound having 10 or more and less than 20 is denoted as A) | A (a compound having 10 or more and less than 20 is denoted as A) | – | – | – |
| CCO[C@@H]1C[C@H]2C(=O)NC3(CCC3)C(=O)N(C)[C@@H](C3CCCC3)C(=O)N(C)[C@H](C(=O)N3CCOCC3)CC(=O)N(C)[C@@H](CC3CC3)C(=O)N[C@@H]([C@@H](C)CC)C(=O)N(C)CC(=O)N(C)[C@H]3CCCCCN(C3=O)[C@@H](Cc3ccc(F)cc3)C(=O)N(C)CC(=O)N[C@@H](CCc3cc(F)c(C(F)(F)F)c(F)c3)C(=O)N2C1 [PP1178] | – | – | – | 7.58 | 9.80 | B (a compound having 3 or more and less than 10 is denoted as B) | B (a compound having 3 or more and less than 10 is denoted as B) | – | – | – |
